Measured values published in US10167262B2, “Herbicidal substituted 3-arylpyrazoles” (FMC CORPORATION, priority 2014, dated 2019).

Key:
Format in all cases: in vivo
[1] = tested on: downy bromegrass (Bromus tectorum); assay: Test C postemergence greenhouse test, plant response rating 0-100; conditions: for Plant response rating, Bromegrass, Downy: scale 0 to 100
Outline: (§1)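 Response is a visual 0–100 control rating taken 13 to 15 days post-treatment, with a dash marking no result. Plants ranged 2 to 18 cm when treated postemergence.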

[2] = tested on: windgrass (Apera spica-venti); assay: as above; conditions: for Plant response rating, Windgrass: scale 0 to 100
Outline: as §1

[3] = tested on: green foxtail (Setaria viridis); assay: as above; conditions: for Plant response rating, Foxtail, Green: scale 0 to 100
Outline: as §1

[4] = tested on: bermudagrass (Cynodon dactylon); assay: as above; conditions: for Plant response rating, Bermudagrass: scale 0 to 100
Outline: as §1

[5] = tested on: canarygrass (Phalaris minor); assay: as above; conditions: for Plant response rating, Canarygrass: scale 0 to 100
Outline: as §1

[6] = tested on: woolly cupgrass (Eriochloa villosa); assay: as above; conditions: for Plant response rating, Cupgrass, Woolly: scale 0 to 100
Outline: as §1

[7] = tested on: goosegrass (Eleusine indica); assay: as above; conditions: for Plant response rating, Goosegrass: scale 0 to 100
Outline: as §1

[8] = tested on: deadnettle (henbit deadnettle, Lamium amplexicaule); assay: as above; conditions: for Plant response rating, Deadnettle: scale 0 to 100
Outline: as §1

[9] = tested on: cocklebur (common cocklebur, Xanthium strumarium); assay: as above; conditions: for Plant response rating, Cocklebur: scale 0 to 100
Outline: as §1

[10] = tested on: winter barley (Hordeum vulgare); assay: as above; conditions: for Plant response rating, Barley: scale 0 to 100
Outline: as §1

[11] = tested on: surinam grass (Brachiaria decumbens); assay: as above; conditions: for Plant response rating, Surinam Grass: scale 0 to 100
Outline: as §1

[12] = tested on: ducksalad (Heteranthera limosa); assay: Test B flooded paddy test, plant response rating 0-100; conditions: Flood, 250 g ai/ha; scale 0 to 100 (0 no effect, 100 complete control); 13 to 15 days
Outline: (§2)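 Visual injury ratings against untreated controls, taken 13 to 15 days after compound was added to paddy water standing 3 cm above the soil.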

rice (Oryza sativa) = assay: as above; conditions: Flood, 250 g ai/ha; scale 0 to 100 (0 no effect, 100 complete control); 13 to 15 days
Outline: as §2

[13] = tested on: sedge, umbrella (small-flower umbrella sedge, Cyperus difformis); assay: as above; conditions: Flood, 250 g ai/ha; scale 0 to 100 (0 no effect, 100 complete control); 13 to 15 days
Outline: as §2

Cn1cc(C(=NN2CCCC2)c2ccccc2)c(-c2cc(Cl)c(Cl)c(Cl)c2)n1 [Compound 25]
Plant response rating (0 to 100), Bromegrass, Downy ([1]; 31 g ai/ha): 0
Plant response rating (0 to 100), Bromegrass, Downy ([1]; 62 g ai/ha): 0
Plant response rating, Bromegrass, Downy ([1]; 125 g ai/ha): 0
Plant response rating, Bromegrass, Downy ([1]; 250 g ai/ha): 0
Plant response rating (0 to 100), Windgrass ([2]; 62 g ai/ha): 0
Plant response rating (0 to 100), Windgrass ([2]; 125 g ai/ha): 0
Plant response rating, Windgrass ([2]; 250 g ai/ha): 25
Plant response rating (0 to 100), Foxtail, Green ([3]; 31 g ai/ha): 0
Plant response rating (0 to 100), Foxtail, Green ([3]; 62 g ai/ha): 0
Plant response rating (0 to 100), Foxtail, Green ([3]; 125 g ai/ha): 5
Plant response rating, Foxtail, Green ([3]; 250 g ai/ha): 15
Plant response rating (0 to 100), Bermudagrass ([4]; 31 g ai/ha): 0
Plant response rating (0 to 100), Bermudagrass ([4]; 62 g ai/ha): 0
Plant response rating, Bermudagrass ([4]; 125 g ai/ha): 0
Plant response rating, Bermudagrass ([4]; 250 g ai/ha): 0
Plant response rating (0 to 100), Canarygrass ([5]; 31 g ai/ha): 0
Plant response rating (0 to 100), Canarygrass ([5]; 62 g ai/ha): 0
Plant response rating (0 to 100), Canarygrass ([5]; 125 g ai/ha): 0
Plant response rating, Canarygrass ([5]; 250 g ai/ha): 5
Plant response rating (0 to 100), Cupgrass, Woolly ([6]; 31 g ai/ha): 0
Plant response rating (0 to 100), Cupgrass, Woolly ([6]; 62 g ai/ha): 0
Plant response rating (0 to 100), Cupgrass, Woolly ([6]; 125 g ai/ha): 0
Plant response rating, Cupgrass, Woolly ([6]; 250 g ai/ha): 0
Plant response rating (0 to 100), Goosegrass ([7]; 31 g ai/ha): 0
Plant response rating (0 to 100), Goosegrass ([7]; 62 g ai/ha): 0
Plant response rating (0 to 100), Goosegrass ([7]; 125 g ai/ha): 0
Plant response rating, Goosegrass ([7]; 250 g ai/ha): 0
Plant response rating (0 to 100), Deadnettle ([8]; 31 g ai/ha): 0
Plant response rating (0 to 100), Deadnettle ([8]; 62 g ai/ha): 0
Plant response rating (0 to 100), Deadnettle ([8]; 125 g ai/ha): 0
Plant response rating, Deadnettle ([8]; 250 g ai/ha): 0
Plant response rating (0 to 100), Cocklebur ([9]; 31 g ai/ha): 5
Plant response rating (0 to 100), Cocklebur ([9]; 62 g ai/ha): 15
Plant response rating (0 to 100), Cocklebur ([9]; 125 g ai/ha): 15
Plant response rating, Cocklebur ([9]; 250 g ai/ha): 25
Plant response rating (0 to 100), Barley ([10]; 31 g ai/ha): 0
Plant response rating (0 to 100), Barley ([10]; 62 g ai/ha): 0
Plant response rating, Barley ([10]; 125 g ai/ha): 5
Plant response rating, Barley ([10]; 250 g ai/ha): 10
Plant response rating (0 to 100), Surinam Grass ([11]; 62 g ai/ha): 0
Plant response rating (0 to 100), Surinam Grass ([11]; 125 g ai/ha): 0
Plant response rating, Surinam Grass ([11]; 250 g ai/ha): 0
Plant response rating, Ducksalad [12]: 0
Plant response rating, Rice (rice (Oryza sativa)): 0
Plant response rating, Sedge, Umbrella [13]: 70

Fc1ccc(NN=C(c2ccccc2)c2c[nH]nc2-c2cc(Cl)cc(Cl)c2)cc1 [Compound 35]
Plant response rating (0 to 100), Bromegrass, Downy ([1]; 62 g ai/ha): 0
Plant response rating (0 to 100), Bromegrass, Downy ([1]; 125 g ai/ha): 0
Plant response rating, Bromegrass, Downy ([1]; 250 g ai/ha): 0
Plant response rating, Bromegrass, Downy ([1]; 500 g ai/ha): 0
Plant response rating (0 to 100), Windgrass ([2]; 62 g ai/ha): 0
Plant response rating (0 to 100), Windgrass ([2]; 125 g ai/ha): 0
Plant response rating, Windgrass ([2]; 250 g ai/ha): 0
Plant response rating, Windgrass ([2]; 500 g ai/ha): 0
Plant response rating (0 to 100), Foxtail, Green ([3]; 62 g ai/ha): 0
Plant response rating (0 to 100), Foxtail, Green ([3]; 125 g ai/ha): 0
Plant response rating, Foxtail, Green ([3]; 250 g ai/ha): 0
Plant response rating, Foxtail, Green ([3]; 500 g ai/ha): 20
Plant response rating (0 to 100), Bermudagrass ([4]; 62 g ai/ha): 0
Plant response rating (0 to 100), Bermudagrass ([4]; 125 g ai/ha): 0
Plant response rating, Bermudagrass ([4]; 250 g ai/ha): 0
Plant response rating, Bermudagrass ([4]; 500 g ai/ha): 0
Plant response rating (0 to 100), Canarygrass ([5]; 62 g ai/ha): 0
Plant response rating (0 to 100), Canarygrass ([5]; 125 g ai/ha): 0
Plant response rating, Canarygrass ([5]; 250 g ai/ha): 0
Plant response rating, Canarygrass ([5]; 500 g ai/ha): 0
Plant response rating (0 to 100), Cupgrass, Woolly ([6]; 62 g ai/ha): 5
Plant response rating (0 to 100), Cupgrass, Woolly ([6]; 125 g ai/ha): 5
Plant response rating, Cupgrass, Woolly ([6]; 250 g ai/ha): 5
Plant response rating, Cupgrass, Woolly ([6]; 500 g ai/ha): 5
Plant response rating (0 to 100), Goosegrass ([7]; 62 g ai/ha): 0
Plant response rating (0 to 100), Goosegrass ([7]; 125 g ai/ha): 0
Plant response rating, Goosegrass ([7]; 250 g ai/ha): 0
Plant response rating, Goosegrass ([7]; 500 g ai/ha): 0
Plant response rating (0 to 100), Deadnettle ([8]; 62 g ai/ha): 0
Plant response rating (0 to 100), Deadnettle ([8]; 125 g ai/ha): 0
Plant response rating, Deadnettle ([8]; 250 g ai/ha): 0
Plant response rating, Deadnettle ([8]; 500 g ai/ha): 0
Plant response rating (0 to 100), Cocklebur ([9]; 62 g ai/ha): 60
Plant response rating (0 to 100), Cocklebur ([9]; 125 g ai/ha): 60
Plant response rating, Cocklebur ([9]; 250 g ai/ha): 75
Plant response rating, Cocklebur ([9]; 500 g ai/ha): 75
Plant response rating (0 to 100), Barley ([10]; 62 g ai/ha): 0
Plant response rating (0 to 100), Barley ([10]; 125 g ai/ha): 0
Plant response rating, Barley ([10]; 250 g ai/ha): 0
Plant response rating, Barley ([10]; 500 g ai/ha): 0
Plant response rating (0 to 100), Surinam Grass ([11]; 62 g ai/ha): 0
Plant response rating (0 to 100), Surinam Grass ([11]; 125 g ai/ha): 0
Plant response rating, Surinam Grass ([11]; 250 g ai/ha): 0
Plant response rating, Surinam Grass ([11]; 500 g ai/ha): 0
Plant response rating, Ducksalad [12]: 0
Plant response rating, Rice (rice (Oryza sativa)): 0
Plant response rating, Sedge, Umbrella [13]: 0

CCn1cc(C(=O)c2ccccc2)c(-c2cc(Br)cc(Br)c2)n1 [Compound 38]
Plant response rating (0 to 100), Bromegrass, Downy ([1]; 31 g ai/ha): 0
Plant response rating (0 to 100), Bromegrass, Downy ([1]; 62 g ai/ha): 0
Plant response rating (0 to 100), Bromegrass, Downy ([1]; 125 g ai/ha): 0
Plant response rating, Bromegrass, Downy ([1]; 250 g ai/ha): 0
Plant response rating (0 to 100), Windgrass ([2]; 62 g ai/ha): 0
Plant response rating (0 to 100), Windgrass ([2]; 125 g ai/ha): 0
Plant response rating, Windgrass ([2]; 250 g ai/ha): 0
Plant response rating (0 to 100), Foxtail, Green ([3]; 31 g ai/ha): 0
Plant response rating (0 to 100), Foxtail, Green ([3]; 62 g ai/ha): 0
Plant response rating (0 to 100), Foxtail, Green ([3]; 125 g ai/ha): 0
Plant response rating, Foxtail, Green ([3]; 250 g ai/ha): 5
Plant response rating (0 to 100), Bermudagrass ([4]; 31 g ai/ha): 0
Plant response rating (0 to 100), Bermudagrass ([4]; 62 g ai/ha): 0
Plant response rating (0 to 100), Bermudagrass ([4]; 125 g ai/ha): 0
Plant response rating, Bermudagrass ([4]; 250 g ai/ha): 0
Plant response rating (0 to 100), Canarygrass ([5]; 31 g ai/ha): 0
Plant response rating (0 to 100), Canarygrass ([5]; 62 g ai/ha): 0
Plant response rating (0 to 100), Canarygrass ([5]; 125 g ai/ha): 0
Plant response rating, Canarygrass ([5]; 250 g ai/ha): 5
Plant response rating (0 to 100), Cupgrass, Woolly ([6]; 31 g ai/ha): 0
Plant response rating (0 to 100), Cupgrass, Woolly ([6]; 62 g ai/ha): 0
Plant response rating (0 to 100), Cupgrass, Woolly ([6]; 125 g ai/ha): 0
Plant response rating, Cupgrass, Woolly ([6]; 250 g ai/ha): 0
Plant response rating (0 to 100), Goosegrass ([7]; 31 g ai/ha): 0
Plant response rating (0 to 100), Goosegrass ([7]; 62 g ai/ha): 0
Plant response rating (0 to 100), Goosegrass ([7]; 125 g ai/ha): 0
Plant response rating, Goosegrass ([7]; 250 g ai/ha): 0
Plant response rating (0 to 100), Deadnettle ([8]; 31 g ai/ha): 0
Plant response rating (0 to 100), Deadnettle ([8]; 62 g ai/ha): 0
Plant response rating (0 to 100), Deadnettle ([8]; 125 g ai/ha): 0
Plant response rating, Deadnettle ([8]; 250 g ai/ha): 5
Plant response rating (0 to 100), Cocklebur ([9]; 31 g ai/ha): 5
Plant response rating (0 to 100), Cocklebur ([9]; 62 g ai/ha): 10
Plant response rating (0 to 100), Cocklebur ([9]; 125 g ai/ha): 15
Plant response rating, Cocklebur ([9]; 250 g ai/ha): 15
Plant response rating (0 to 100), Barley ([10]; 31 g ai/ha): 0
Plant response rating (0 to 100), Barley ([10]; 62 g ai/ha): 0
Plant response rating (0 to 100), Barley ([10]; 125 g ai/ha): 0
Plant response rating, Barley ([10]; 250 g ai/ha): 0
Plant response rating (0 to 100), Surinam Grass ([11]; 62 g ai/ha): 0
Plant response rating (0 to 100), Surinam Grass ([11]; 125 g ai/ha): 0
Plant response rating, Surinam Grass ([11]; 250 g ai/ha): 0
Plant response rating, Ducksalad [12]: 0
Plant response rating, Rice (rice (Oryza sativa)): 0
Plant response rating, Sedge, Umbrella [13]: 0
